In patent US8193191B2, “Urotensin II receptor antagonists” (Janssen Pharmaceutica N.V., priority 2006, dated 2012):
pIC50, pKi: −log10 of the molar value. Where “and” joins values, the source holds several entries; their conditions need not be identical. Equal values may be shown once. Read-outs that look alike come from different tables or passages of the source.

Experiments:
[1] = target: T1, endogenous human UII receptor (Homo sapiens, UniProt Q9UKP6); test: Human Radioligand Binding Assay ((^125I)-U-II binding to human skeletal muscle myoblasts)
T1 sequence (Q9UKP6 1-389): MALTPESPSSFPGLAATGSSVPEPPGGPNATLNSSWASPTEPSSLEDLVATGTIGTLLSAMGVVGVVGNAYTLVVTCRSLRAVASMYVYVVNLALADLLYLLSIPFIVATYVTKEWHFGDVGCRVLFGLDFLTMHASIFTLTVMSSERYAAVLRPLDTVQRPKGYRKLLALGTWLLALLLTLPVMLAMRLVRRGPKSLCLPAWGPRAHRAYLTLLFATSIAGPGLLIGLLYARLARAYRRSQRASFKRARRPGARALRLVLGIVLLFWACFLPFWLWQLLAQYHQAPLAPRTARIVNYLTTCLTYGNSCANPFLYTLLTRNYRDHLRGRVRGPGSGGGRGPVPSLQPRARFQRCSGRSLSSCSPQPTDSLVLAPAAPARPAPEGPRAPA

[2] = target: T2, rat GPR14 (U-II receptor) (Rattus norvegicus, UniProt P49684); test: Rat UII Calcium Mobilization FLIPR Assay; assay type: cell-based; settings: for inhibition at 10 µM / inhibition at 50 µM: CHO, 5 min, agonist-induced Ca2+ mobilization (FLIPR), CHO cells with rat UII receptor; for inhibition at 10 µM: 10 μM compound, read-out: % I @ 10; for inhibition at 50 µM: 50 μM compound, read-out: % I @ 50
T2 construct: expressed in transfected cells
T2 sequence (P49684 1-386): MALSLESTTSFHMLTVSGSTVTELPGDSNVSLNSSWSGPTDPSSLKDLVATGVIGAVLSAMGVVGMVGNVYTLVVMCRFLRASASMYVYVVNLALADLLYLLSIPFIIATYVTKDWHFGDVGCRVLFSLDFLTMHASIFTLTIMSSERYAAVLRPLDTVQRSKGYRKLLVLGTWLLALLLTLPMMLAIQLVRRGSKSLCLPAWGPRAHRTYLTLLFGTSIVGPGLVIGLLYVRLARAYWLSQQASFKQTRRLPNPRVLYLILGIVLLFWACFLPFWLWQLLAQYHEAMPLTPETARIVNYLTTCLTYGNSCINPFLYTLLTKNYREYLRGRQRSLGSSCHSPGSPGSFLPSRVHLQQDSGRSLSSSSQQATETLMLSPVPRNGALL
Description: To derive these cells, the complete coding sequence of rat U-II (Genbank Accession No. U32673) was amplified by nested PCR from rat heart marathon-Ready cDNA. […] The PCR products were cloned into pcDNA3 (Invitrogen) digested with EcoR I and Xba I. Clones containing rat U-II receptor were verified by complete sequencing of the U-II receptor insert to ensure a lack of PCR-introduced errors. The constructed vector was transfected into CHO cells by using lipofectamine (GIBCO BRL). CHO cells with high expression of rat U-II receptor were selected and established as stable cell lines by using G418. CHO cells were seeded at 25,000 cells per well into 96-well, black-wall, clear-bottom microtiter plates 24 h before assay. Cells in culture media (DMEM/F12 containing 15 mM HEPES, L-glutamine, pyridoxine hydrochloride; 10% fetal bovine serum; 1 mg/mL G418 sulfate; antibiotic-antimycotic; pH 7.4) were loaded with proprietary dye, from the FLIPR Calcium Assay Kit (Molecular Devices), prepared in assay buffer (Hanks Balanced Salts Solution, 20 mM HEPES, 0.1% BSA, 2.5 mM probenecid, pH 7.4), and incubated for 1 h at 37° C. Calcium mobilization determinations were performed at room temperature (23° C.).

[3] = Inhibition of human UII binding to human skeletal muscle myoblasts containing endogenous human UII receptor
[4] = Inhibition of Acetyl-cyclic[Cys-Phe-Trp-Lys-(2-Nal)-Cys]-NH2 induced Ca2+ mobilization (FLIPR) in CHO cells transfected with rat UII receptor, read-out: IC50
[5] = average value for the compound tested, read-out: Rat UII FLIPR Average IC50

| SMILES | pKi [1, 3] | inhibition at 10 µM [2] [%] | inhibition at 50 µM [2] [%] | pIC50 [2, 4] | pKi [1] | pIC50 [2, 5] |
| --- | --- | --- | --- | --- | --- | --- |
| COc1ccc(CN2C(=O)c3cccc(N4CCN([C@H](C)c5ccccc5)CC4)c3C2=O)cc1OC [Cpd 1, 2-(3,4-dimethoxy-benzyl)-4-[4-(1R)-(1-phenyl-ethyl)-piperazin-1-yl]-isoindole-1,3-dione] | 6.24 | 99 | 99 | 7.34 and 7.08 |  |  |
| COc1ccc(C(C)N2C(=O)c3cccc(N4CCN([C@H](C)c5ccccc5)CC4)c3C2=O)cc1OC (stereo partly drawn) [Cpd 2, 2-[1-(3,4-dimethoxy-phenyl)-ethyl]-4-[4-(1R)-(1-phenyl-ethyl)-piperazin-1-yl]-isoindole-1,3-dione] | 6.51 | 101 | 103 | 7.15 |  |  |
| COc1ccc([C@H](C)N2C(=O)c3cccc(N4CCN([C@H](C)c5ccccc5)CC4)c3C2=O)cc1OC [Cpd 3, 2-[(S)-1-(3,4-dimethoxy-phenyl)-ethyl]-4-[4-(1R)-(1-phenyl-ethyl)-piperazin-1-yl]-isoindole-1,3-dione] | 6.80 | 100 | 101 | 6.89 |  |  |
| COc1ccc([C@@H](C)N2C(=O)c3cccc(N4CCN([C@H](C)c5ccccc5)CC4)c3C2=O)cc1OC [Cpd 4, (R)-2-[1-(3,4-dimethoxy-phenyl)-ethyl]-4-[4-(1R)-(1-phenyl-ethyl)-piperazin-1-yl]-isoindole-1,3-dione] | 6.64 | 100 | 100 | 6.82 |  |  |
| COc1ccc(CN2C(=O)c3cccc(N4CCN(Cc5ccccc5)CC4)c3C2=O)cc1OC [Cpd 5, 4-(4-benzyl-piperazin-1-yl)-2-(3,4-dimethoxy-benzyl)-isoindole-1,3-dione] |  | 99 | 99 | 6.82 | 5.82 |  |
| COc1ccc(CN2C(=O)c3cccc(N4CCN(C(C)c5ccccc5)CC4)c3C2=O)cc1OC (stereo not drawn) [Cpd 6, 2-(3,4-dimethoxy-benzyl)-4-[4-(1-phenyl-ethyl)-piperazin-1-yl]-isoindole-1,3-dione] |  | 103 | 102 | 6.80 | 5.92 |  |
| COc1ccc(CN2C(=O)c3cccc(N4CC5CCC(C4)N5Cc4ccccc4)c3C2=O)cc1OC [Cpd 7, 4-(8-benzyl-3,8-diaza-bicyclo[3.2.1]oct-3-yl)-2-(3,4-dimethoxy-benzyl)-isoindole-1,3-dione] |  | 89 |  | 6.66 and 6.74 | 6.70 |  |
| CCC(c1ccc(OC)c(OC)c1)N1C(=O)c2cccc(N3CCN([C@H](C)c4ccccc4)CC3)c2C1=O (stereo partly drawn) [Cpd 8, 2-[1-(3,4-dimethoxy-phenyl)-propyl]-4-[4-(1R)-(1-phenyl-ethyl)-piperazin-1-yl]-isoindole-1,3-dione] | 6.51 | 100 | 100 | 6.74 |  |  |
| COc1ccc(CN2C(=O)c3c(Cl)ccc(N4CC5CCC(C4)N5Cc4ccccc4)c3C2=O)cc1OC [Cpd 9, 4-(8-benzyl-3,8-diaza-bicyclo[3.2.1]oct-3-yl)-7-chloro-2-(3,4-dimethoxy-benzyl)-isoindole-1,3-dione] |  | 91 | 81 | 6.72 | 6.18 |  |
| COc1ccc(CN2C(=O)c3cccc(N4CCN(Cc5ccc(F)cc5)CC4)c3C2=O)cc1OC [Cpd 12, 2-(3,4-dimethoxy-benzyl)-4-[4-(4-fluoro-benzyl)-piperazin-1-yl]-isoindole-1,3-dione] |  |  |  | 5.55 and 6.43 | 5.35 |  |
| COc1ccc(CN2C(=O)c3cccc(N4CCN(CC(C)C)CC4)c3C2=O)cc1OC [Cpd 82, 2-(3,4-dimethoxy-benzyl)-4-(4-isobutyl-piperazin-1-yl)-isoindole-1,3-dione] |  |  |  |  |  | 5.33 |
| COc1ccc(CN2C(=O)c3cccc(N4CCN(Cc5ccccn5)CC4)c3C2=O)cc1OC [Cpd 84, 2-(3,4-dimethoxy-benzyl)-4-(4-pyridin-2-ylmethyl-piperazin-1-yl)-isoindole-1,3-dione] |  |  |  |  |  | 5.55 |
| COc1ccc(C(CCCNS(=O)(=O)c2cc(S(=O)(=O)c3ccccc3)cs2)N2C(=O)c3cccc(N4CCN([C@H](C)c5ccccc5)CC4)c3C2=O)cc1OC (stereo partly drawn) [Cpd 92, 4-benzenesulfonyl-thiophene-2-sulfonic acid (4-(3,4-dimethoxy-phenyl)-4-{1,3-dioxo-4-[4-(1R)-(1-phenyl-ethyl)-piperazin-1-yl]-1,3-dihydro-isoindol-2-yl}-butyl)-amide] |  |  |  |  |  | 6.04 |
| COc1ccc(C(CCCNS(=O)(=O)c2ccc(Br)s2)N2C(=O)c3cccc(N4CCN([C@H](C)c5ccccc5)CC4)c3C2=O)cc1OC (stereo partly drawn) [Cpd 100, 5-bromo-thiophene-2-sulfonic acid (4-(3,4-dimethoxy-phenyl)-4-{1,3-dioxo-4-[4-(1R)-(1-phenyl-ethyl)-piperazin-1-yl]-1,3-dihydro-isoindol-2-yl}-butyl)-amide] |  |  |  |  |  | 6.24 |
| COc1ccc(C(CCCNS(=O)(=O)C=Cc2ccccc2)N2C(=O)c3cccc(N4CCN([C@H](C)c5ccccc5)CC4)c3C2=O)cc1OC (stereo partly drawn) [Cpd 111, 2-phenyl-ethenesulfonic acid (4-(3,4-dimethoxy-phenyl)-4-{1,3-dioxo-4-[4-(1R)-(1-phenyl-ethyl)-piperazin-1-yl]-1,3-dihydro-isoindol-2-yl}-butyl)-amide] |  |  |  |  |  | 6.82 |
| COc1ccc(C(CCCNS(=O)(=O)c2cc(Cl)sc2Cl)N2C(=O)c3cccc(N4CCN([C@H](C)c5ccccc5)CC4)c3C2=O)cc1OC (stereo partly drawn) [Cpd 113, 2,5-dichloro-thiophene-3-sulfonic acid (4-(3,4-dimethoxy-phenyl)-4-{1,3-dioxo-4-[4-(1R)-(1-phenyl-ethyl)-piperazin-1-yl]-1,3-dihydro-isoindol-2-yl}-butyl)-amide] |  |  |  |  |  | 5.59 |
| COc1ccc(C(CCCNS(=O)(=O)c2csc3ccccc23)N2C(=O)c3cccc(N4CCN([C@H](C)c5ccccc5)CC4)c3C2=O)cc1OC (stereo partly drawn) [Cpd 116, benzo[b]thiophene-3-sulfonic acid (4-(3,4-dimethoxy-phenyl)-4-{1,3-dioxo-4-[4-(1R)-(1-phenyl-ethyl)-piperazin-1-yl]-1,3-dihydro-isoindol-2-yl}-butyl)-amide] |  |  |  |  |  | 5.85 |
| COc1ccc(C(CCCNC(=O)Nc2cccs2)N2C(=O)c3cccc(N4CCN([C@H](C)c5ccccc5)CC4)c3C2=O)cc1OC (stereo partly drawn) [Cpd 120, 1-(4-(3,4-dimethoxy-phenyl)-4-{1,3-dioxo-4-[4-(1R)-(1-phenyl-ethyl)-piperazin-1-yl]-1,3-dihydro-isoindol-2-yl}-butyl)-3-thiophen-2-yl-urea] |  |  |  |  |  | 6.51 |
| COc1ccc(C(CCNC(=O)Nc2cccs2)N2C(=O)c3cccc(N4CCN([C@H](C)c5ccccc5)CC4)c3C2=O)cc1OC (stereo partly drawn) [Cpd 121, 1-(3-(3,4-dimethoxy-phenyl)-3-{1,3-dioxo-4-[4-(1R)-(1-phenyl-ethyl)-piperazin-1-yl]-1,3-dihydro-isoindol-2-yl}-propyl)-3-thiophen-2-yl-urea] |  |  |  |  |  | 6.57 |
| COc1ccc([C@@H](CCCNS(=O)(=O)c2sc3ccc(F)cc3c2C)N2C(=O)c3cccc(N4CCN([C@H](C)c5ccccc5)CC4)c3C2=O)cc1OC [Cpd 137, (R)-5-fluoro-3-methyl-benzo[b]thiophene-2-sulfonic acid (4-(3,4-dimethoxy-phenyl)-4-{1,3-dioxo-4-[4-(1R)-(1-phenyl-ethyl)-piperazin-1-yl]-1,3-dihydro-isoindol-2-yl}-butyl)-amide] |  |  |  |  |  | 5.66 |
| COc1ccc([C@@H](CCCNS(N)(=O)=O)N2C(=O)c3cccc(N4CCN([C@H](C)c5ccccc5)CC4)c3C2=O)cc1OC [Cpd 141, (R)-N′-[(4-(3,4-dimethoxy-phenyl)-4-{1,3-dioxo-4-[4-(1R)-(1-phenyl-ethyl)-piperazin-1-yl]-1,3-dihydro-isoindol-2-yl}-butyl)]-sulfamide] |  |  |  |  | 7.77 |  |
